In patent publication US8158376B2, “Bisubstrate fluorescent probe binding to protein kinases” (University of Tartu, priority 2006, dated 2012):
Where “and” joins values, the source holds several entries; their conditions need not be identical. Equal values may be shown once. Each block holds one compound with its values, some of them ahead of it. Starred links: 1 amine or outer side, 2 acyl side, 3 side chain; linkers in the order of their positions; H or OH if unused. Non-standard residues stand in square brackets, D forms with d. Residues, ends and D or L forms follow the SMILES beside them. *: point of attachment. Adenosine(5'-uronoyl) = Nc1ncnc2c1ncn2[C@@H]1O[C@H](C(=O)*)[C@@H](O)[C@H]1O; X1 = CN(C)c1ccc2c(-c3ccc(C(=O)*)cc3C(=O)[O-])c3ccc(=[N+](C)C)cc-3oc2c1; Isoquinoline5sulfonyl = O=S(=O)(c1cccc2cnccc12)*; X2 = O=C(CCCCCNCCN[*:1])[*:2]; X3 = CN(CCCCCC(=O)[*:2])[*:1]; 4Amb = NCc1ccc(C(=O)O)cc1; Ahx = NCCCCCC(=O)O; βAla = NCCC(=O)O

Columns and labels:
[1] = molecular target: T1, cAPK Cα (Homo sapiens, UniProt P17612); assay: Titration of ARC-TAMRA with cAPK Cα, fluorescence anisotropy, LS 55 spectrometer 0.5 ml cell; assay type: binding; parameters: purchased Biaffin AG; conditions: LS 55, 0.5 ml quartz cell, read-out: Kd of ARC-TAMRA complex with cAPK Cα
Description: The change in fluorescence anisotropy was plotted against the kinase concentration [cAPK Cα]. The data were fitted to the equation: […]
The binding of the fluorescent probe ARC-TAMRA to the kinase cAPK Cα (Biaffin) was studied at 10 nM or 2 nM ARC-TAMRA concentration (excitation at 557 nm, slitwidth 10 nm; emission at 585 nm, slitwidth 10 nm, detection of fluorescence polarization).
10 nM solution of ARC-TAMRA in 500 μl of buffer (50 mM HEPES, 200 mM NaCl, 0.5 g/l BSA, 5 mM DTT, 0.05% TWEEN 20, MilliQ water; pH 7.4) was titrated with the solution of kinase cAPK Cα (Biaffin). 1-3 μl quantities of various dilutions of kinase solution were added to 500 μl of 2.0 nM or 10.0 nM solution of ARC-TAMRA, and fluorescence anisotropy was measured after each addition of the kinase solution after 10 min delay time. The change in fluorescence anisotropy was plotted against the kinase concentration [cAPK Cα]. The data were fitted to the equation: […]

[2] = molecular target: T1, cAPK Cα; assay: Titration of ARC-TAMRA with cAPK Cα, PHERAstar plate reader, 384-well; assay type: binding; parameters: purchased Biaffin AG; conditions: 2 nM and 20 nM ARC-TAMRA, 20 μl, 30° C., read-out: Kd of ARC-TAMRA complex with cAPK Cα
Description: Titrations of 2 nM and 20 nM ARC-TAMRA solutions were performed with cAPK C[…]. 2-fold serial dilutions of the kinase were used leading to concentrations of the kinase between 100 nM and 0.05 nM and 20 μl reaction volumes on a 384-well microtiter plate. […] Optical conditions for the measurements were set as the following: 540 nm excitation and 590 nm emission (20 nm bandpass filters). To find the value of Kd, titration curves were analyzed by a scientific curve-fitting program, e.g., GraphPad Prism 4.03, with nonlinear regression, using the function below:
[formula] where A is measured anisotropy, Af—anisotropy value for free ARC-Photo, Ab—anisotropy value for bound ARC-Photo, Lt—total concentration of ARC-Photo, Rt—nominal total concentration of enzyme, k—concentration of active enzyme divided by nominal concentration of enzyme, Kd—dissociation constant for ARC-Photo complex with enzyme. […] Determination of the Inhibition Constants (Ki)

[3] = molecular target: Rho-associated kinase ROCK II (Homo sapiens, UniProt O75116); assay: Titration of ARC-TAMRA with ROCK II, PHERAstar; assay type: binding; conditions: 2 nM and 20 nM ARC-TAMRA, read-out: Kd of ARC-TAMRA-ROCK II complex
Rho-associated kinase ROCK II, sequence (O75116 whole entry): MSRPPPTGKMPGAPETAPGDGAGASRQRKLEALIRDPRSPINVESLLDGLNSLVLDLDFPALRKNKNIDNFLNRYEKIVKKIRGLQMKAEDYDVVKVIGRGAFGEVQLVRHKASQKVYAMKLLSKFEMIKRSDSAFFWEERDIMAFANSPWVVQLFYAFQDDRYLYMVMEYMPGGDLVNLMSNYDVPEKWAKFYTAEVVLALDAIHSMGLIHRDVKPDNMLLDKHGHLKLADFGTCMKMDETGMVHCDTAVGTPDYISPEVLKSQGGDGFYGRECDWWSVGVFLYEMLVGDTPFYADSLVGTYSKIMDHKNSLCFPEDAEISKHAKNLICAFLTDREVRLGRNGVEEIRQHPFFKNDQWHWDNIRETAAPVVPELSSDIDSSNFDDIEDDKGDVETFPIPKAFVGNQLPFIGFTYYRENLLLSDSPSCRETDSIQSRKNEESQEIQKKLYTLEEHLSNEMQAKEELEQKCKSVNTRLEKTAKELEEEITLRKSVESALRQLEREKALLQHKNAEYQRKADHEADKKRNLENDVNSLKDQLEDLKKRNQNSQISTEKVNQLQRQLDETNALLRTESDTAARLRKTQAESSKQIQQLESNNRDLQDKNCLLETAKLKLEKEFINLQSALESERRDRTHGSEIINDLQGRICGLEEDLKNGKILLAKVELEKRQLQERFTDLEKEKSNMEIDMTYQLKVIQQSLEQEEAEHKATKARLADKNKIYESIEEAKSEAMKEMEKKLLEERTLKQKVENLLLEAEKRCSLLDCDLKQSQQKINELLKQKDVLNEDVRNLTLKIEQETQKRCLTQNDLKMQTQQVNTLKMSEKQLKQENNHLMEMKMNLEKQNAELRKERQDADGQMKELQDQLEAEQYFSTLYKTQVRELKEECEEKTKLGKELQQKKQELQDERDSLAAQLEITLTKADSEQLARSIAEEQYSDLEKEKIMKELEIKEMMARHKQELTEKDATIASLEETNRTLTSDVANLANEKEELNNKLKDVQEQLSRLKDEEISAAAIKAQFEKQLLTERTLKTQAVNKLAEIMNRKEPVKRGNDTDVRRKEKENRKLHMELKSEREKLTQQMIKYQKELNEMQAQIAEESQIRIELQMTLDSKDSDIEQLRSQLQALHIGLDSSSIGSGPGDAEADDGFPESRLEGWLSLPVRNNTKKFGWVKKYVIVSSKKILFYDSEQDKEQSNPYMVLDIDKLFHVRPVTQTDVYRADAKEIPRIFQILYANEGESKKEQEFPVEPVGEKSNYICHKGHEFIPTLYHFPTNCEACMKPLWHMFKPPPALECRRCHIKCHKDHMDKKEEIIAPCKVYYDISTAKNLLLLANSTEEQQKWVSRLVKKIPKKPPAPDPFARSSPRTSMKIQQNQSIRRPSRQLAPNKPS
Description: Experiments were performed in the wells of 384-well microtiter plates and with the measurements of fluorescence anisotropy with the platereader PHERAStar according to the protocols described in the Example 7.

[4] = molecular target: T1, cAPK Cα; assay: Inhibition of TAMRA-kemptide phosphorylation catalyzed by cAPK Cα (TLC, fluorescence imaging); assay type: biochemical; parameters: purchased Biaffin AG
Description: (§1) The IC50 values of the inhibitors were measured as previously described. [Viht et al., Anal. Biochem. 340 (2005) 165] The inhibitors in various concentrations were incubated at 30° C. in Hepes buffer (50 mM, pH=7.5) containing cAPK Cα (Biaffin AG; about 1 nM), TAMRA-kemptide (10, 30 or 100 μM), ATP (100 μM or 1 mM), magnesium acetate (10 mM) and bovine serum albumin ([…] 0.2 mg/mL). ATP was added last to initiate the phosphorylation reaction. At fixed time points, the reaction was stopped by 20-fold dilution with 75 mM phosphoric acid and obtained solutions were analyzed by normal phase TLC (without fluorescence indicator, eluted with 1-butanol/pyridine/acetic acid/water, 15/10/12/12 by volume). The visualization and quantification of the fluorescent spots were carried out by fluorescence imaging. Data were processed with Graphpad Prism software (version 4, GraphPad).

[5] = molecular target: T1, cAPK Cα; assay: High-throughput displacement of ARC-TAMRA from cAPK Cα, PHERAstar
Description: To determine the inhibition constant (Ki), 3-fold serial dilutions of a given inhibitor are performed analogously as for titration experiments. Before the measurement of fluorescence anisotropies the plate is rotated (400 rpm) for 10 minutes at 30° C.

[6] = molecular target: T1, cAPK Cα; assay: Competition: displacement of ARC-TAMRA from complex with cAPK Cα, fluorescence anisotropy, LS 55; assay type: binding; parameters: purchased Biaffin AG
Description: A complex was created between 10 nM of ARC-TAMRA and 10 nM of cAPK Cα in 0.500 ml of buffer (50 mM HEPES, 200 mM NaCl, 0.5 g/l BSA, 5 mM DTT, 0.05% TWEEN 20, MilliQ water; pH 7.4). Different compounds were screened for binding to cAPK Cα against fixed concentrations of ARC-TAMRA and cAPK Cα (FIG. 4). 1-3 μl quantities of various dilutions of the solution of the inhibitor were added to 500 μl solution of ARC-TAMRA complex with the kinase and fluorescence anisotropy was measured after each addition of the […] after 10 min delay time.

[7] = molecular target: T1, cAPK Cα; assay: Inhibition of cAPK Cα-catalysed phosphorylation of TAMRA-kemptide (TLC/fluorescence imaging); assay type: biochemical; parameters: purchased Biaffin AG; conditions: single site-targeted constituents of the conjugate
Description: as §1

[8] = molecular target: PKBΔph (Homo sapiens, UniProt P31749); assay: Kinase selectivity panel, residual activity; assay type: biochemical; conditions: 1 μM compound, 5 μM ATP, 30° C.
PKBΔph, sequence (P31749 whole entry, stated change not applied): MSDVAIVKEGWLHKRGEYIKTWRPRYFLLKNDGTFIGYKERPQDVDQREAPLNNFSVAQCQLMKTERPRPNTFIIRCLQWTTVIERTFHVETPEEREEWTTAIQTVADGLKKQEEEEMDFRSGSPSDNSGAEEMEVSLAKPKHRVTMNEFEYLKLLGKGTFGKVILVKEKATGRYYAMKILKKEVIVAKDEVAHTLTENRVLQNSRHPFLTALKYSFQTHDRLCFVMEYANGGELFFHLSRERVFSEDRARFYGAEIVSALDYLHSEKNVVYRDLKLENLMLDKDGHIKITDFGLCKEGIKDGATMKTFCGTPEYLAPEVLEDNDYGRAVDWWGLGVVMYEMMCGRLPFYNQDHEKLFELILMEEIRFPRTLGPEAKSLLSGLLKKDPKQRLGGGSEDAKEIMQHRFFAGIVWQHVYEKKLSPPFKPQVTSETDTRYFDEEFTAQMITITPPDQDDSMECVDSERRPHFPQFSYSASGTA
Description: (§2) The assay of protein kinases was performed at 30° C. as described previously [Davies et al., Biochem. J. 351 (2000) 95; Murray et al., Biochem. J. 384 (2004) 477]. The results of the testing are expressed as the % of residual activity of the kinase in the presence of the inhibitor at 1 micromolar concentration.

[9] = molecular target: PRK2 (Homo sapiens, UniProt Q16513); assay: Kinase selectivity panel, residual activity; assay type: biochemical
PRK2, sequence (Q16513 whole entry): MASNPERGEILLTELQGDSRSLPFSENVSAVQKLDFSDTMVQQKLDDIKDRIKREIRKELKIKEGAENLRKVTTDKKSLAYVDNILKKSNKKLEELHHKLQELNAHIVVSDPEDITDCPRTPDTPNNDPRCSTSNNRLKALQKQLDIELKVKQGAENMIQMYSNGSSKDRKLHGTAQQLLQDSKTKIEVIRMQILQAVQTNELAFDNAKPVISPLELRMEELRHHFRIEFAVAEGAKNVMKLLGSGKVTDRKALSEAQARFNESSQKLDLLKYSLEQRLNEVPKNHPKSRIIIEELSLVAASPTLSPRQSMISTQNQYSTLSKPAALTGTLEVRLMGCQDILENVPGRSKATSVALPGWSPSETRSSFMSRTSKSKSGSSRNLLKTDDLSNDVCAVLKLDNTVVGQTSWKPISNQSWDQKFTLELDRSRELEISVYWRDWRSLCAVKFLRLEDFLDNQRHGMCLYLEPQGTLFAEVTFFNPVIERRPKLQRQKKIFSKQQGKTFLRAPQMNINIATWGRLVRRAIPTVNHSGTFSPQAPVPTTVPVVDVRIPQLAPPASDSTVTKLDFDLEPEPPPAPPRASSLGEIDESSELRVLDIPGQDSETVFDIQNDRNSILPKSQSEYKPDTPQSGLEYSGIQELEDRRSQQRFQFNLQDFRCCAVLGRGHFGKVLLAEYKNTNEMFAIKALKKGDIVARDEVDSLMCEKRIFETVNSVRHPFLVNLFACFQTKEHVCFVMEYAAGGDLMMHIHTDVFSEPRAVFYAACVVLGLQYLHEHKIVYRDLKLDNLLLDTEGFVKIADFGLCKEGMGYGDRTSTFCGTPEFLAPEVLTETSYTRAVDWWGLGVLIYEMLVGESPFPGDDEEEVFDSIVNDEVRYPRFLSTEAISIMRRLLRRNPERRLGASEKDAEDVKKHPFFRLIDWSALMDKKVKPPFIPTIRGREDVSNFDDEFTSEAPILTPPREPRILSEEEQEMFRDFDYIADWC
Description: as §2

[10] = molecular target: PKBb (Homo sapiens, UniProt P31751); assay: Kinase selectivity panel, residual activity; assay type: biochemical; conditions: 1 μM compound, 50 μM ATP, 30° C.
PKBb, sequence (P31751 whole entry): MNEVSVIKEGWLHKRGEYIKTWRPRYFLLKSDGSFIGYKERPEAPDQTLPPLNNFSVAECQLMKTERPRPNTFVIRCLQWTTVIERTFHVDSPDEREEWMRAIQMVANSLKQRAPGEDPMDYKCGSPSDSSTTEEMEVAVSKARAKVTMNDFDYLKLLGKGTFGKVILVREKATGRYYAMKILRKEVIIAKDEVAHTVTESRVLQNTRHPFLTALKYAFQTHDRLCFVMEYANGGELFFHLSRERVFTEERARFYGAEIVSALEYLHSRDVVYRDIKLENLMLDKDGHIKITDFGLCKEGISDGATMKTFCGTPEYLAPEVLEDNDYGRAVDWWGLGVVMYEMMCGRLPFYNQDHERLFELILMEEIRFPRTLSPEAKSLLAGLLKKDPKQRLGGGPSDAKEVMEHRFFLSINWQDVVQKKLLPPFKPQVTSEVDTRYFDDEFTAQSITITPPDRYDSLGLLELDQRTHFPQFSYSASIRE
Description: as §2

[11] = molecular target: MSK1 (Homo sapiens, UniProt O75582); assay: Kinase selectivity panel, residual activity; assay type: biochemical; conditions: 1 μM compound, 20 μM ATP, 30° C.
MSK1, sequence (O75582 whole entry): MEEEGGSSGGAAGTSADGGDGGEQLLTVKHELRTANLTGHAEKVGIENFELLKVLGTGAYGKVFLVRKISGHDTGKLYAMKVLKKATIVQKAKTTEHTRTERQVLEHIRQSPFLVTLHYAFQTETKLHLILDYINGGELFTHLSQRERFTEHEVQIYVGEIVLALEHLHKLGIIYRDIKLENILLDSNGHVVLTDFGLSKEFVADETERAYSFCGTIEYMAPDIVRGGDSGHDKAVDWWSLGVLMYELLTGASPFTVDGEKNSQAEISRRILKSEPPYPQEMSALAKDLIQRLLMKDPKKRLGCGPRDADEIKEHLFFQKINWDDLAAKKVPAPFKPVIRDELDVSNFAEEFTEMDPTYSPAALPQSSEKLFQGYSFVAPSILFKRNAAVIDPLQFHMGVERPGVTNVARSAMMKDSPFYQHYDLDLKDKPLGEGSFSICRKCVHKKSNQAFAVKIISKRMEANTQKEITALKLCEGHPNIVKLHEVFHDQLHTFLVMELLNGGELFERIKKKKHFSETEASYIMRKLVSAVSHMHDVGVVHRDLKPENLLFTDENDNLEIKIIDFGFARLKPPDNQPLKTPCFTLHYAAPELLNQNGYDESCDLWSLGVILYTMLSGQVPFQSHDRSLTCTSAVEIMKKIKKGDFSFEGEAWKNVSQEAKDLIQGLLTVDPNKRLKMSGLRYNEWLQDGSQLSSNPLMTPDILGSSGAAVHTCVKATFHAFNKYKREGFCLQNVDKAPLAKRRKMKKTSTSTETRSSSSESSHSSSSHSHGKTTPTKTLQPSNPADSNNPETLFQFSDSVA
Description: The assay of protein kinases was performed at 30° C. as described previously [Davies et al., Biochem. J. 351 (2000) 95; Murray et al., Biochem. J. 384 (2004) 477].

[12] = 100 μM ATP and 30 μM TAMRA-kemptide, read-out: IC50

Compound: CN(C)c1ccc2c(-c3ccc(C(=O)NCCCC[C@@H](NC(=O)[C@@H](CCCNC(=N)N)NC(=O)[C@@H](CCCNC(=N)N)NC(=O)[C@@H](CCCNC(=N)N)NC(=O)[C@@H](CCCNC(=N)N)NC(=O)[C@@H](CCCNC(=N)N)NC(=O)[C@@H](CCCNC(=N)N)NC(=O)CCCCCNC(=O)[C@H]4O[C@@H](n5cnc6c(N)ncnc65)[C@H](O)[C@@H]4O)C(N)=O)cc3C(=O)[O-])c3ccc(=[N+](C)C)cc-3oc2c1 [ARC-TAMRA, AdcAhx(D-Arg)6-D-Lys(5-TAMRA)-C(O)NH2] ({Adenosine(5'-uronoyl)-Ahx}-[dR][dR][dR][dR][dR][dR][dK](X1)-NH2)
- Kd ([1]; 2 nM ARC-TAMRA): 0.0011 µM
- Kd ([1]; 10 nM ARC-TAMRA): 0.001 µM and 0.00094 µM
- Kd [2]: 0.0004 µM
- Kd [3]: 0.004 µM
- IC50 ([4]; read-out: IC50 of inhibition towards cAPK): 0.0062 µM

Compound: Nc1ncnc2c1ncn2[C@@H]1O[C@H](CO)[C@@H](O)[C@H]1O [Ado, adenosine, reference compound]
- IC50 [4, 12]: 350 ± 40 µM

Compound: N=C(N)NCCC[C@H](NC(=O)[C@H](CCCNC(=N)N)NC(=O)[C@H](CCCNC(=N)N)NC(=O)[C@H](CCCNC(=N)N)NC(=O)CCCCCNC(=O)[C@H]1O[C@@H](n2cnc3c(N)ncnc32)[C@H](O)[C@@H]1O)C(N)=O [Compound 2] ({Adenosine(5'-uronoyl)-Ahx}-RRRR-NH2)
- IC50 [4, 12]: 2 ± 0.3 µM

Compound: N=C(N)NCCC[C@@H](NC(=O)[C@@H](CCCNC(=N)N)NC(=O)[C@@H](CCCNC(=N)N)NC(=O)[C@@H](CCCNC(=N)N)NC(=O)CCCCCNC(=O)[C@H]1O[C@@H](n2cnc3c(N)ncnc32)[C@H](O)[C@@H]1O)C(N)=O [Compound 4] ({Adenosine(5'-uronoyl)-Ahx}-[dR][dR][dR][dR]-NH2)
- IC50 [4, 12]: 0.33 ± 0.03 µM

Compound: N=C(N)NCCC[C@H](NC(=O)[C@H](CCCNC(=N)N)NC(=O)[C@H](CCCNC(=N)N)NC(=O)[C@H](CCCNC(=N)N)NC(=O)[C@H](CCCNC(=N)N)NC(=O)[C@H](CCCNC(=N)N)NC(=O)CCCCCNC(=O)[C@H]1O[C@@H](n2cnc3c(N)ncnc32)[C@H](O)[C@@H]1O)C(N)=O [Compound 3, AdcAhx(L-Arg)6-NH2]
- Ki [5]: 0.021 µM
- IC50 ([6]; 10 nM ARC-TAMRA, 10 nM cAPK Cα): 1.3 µM
- Ki ([6]; read-out: Ki (competitive binding)): 0.11 µM

- IC50 [4, 12]: 3.7 ± 0.3 µM
Compound: NCCNS(=O)(=O)c1cccc2cnccc12 [Compound H9, 5-isoquinolinesulfonyl ethylenediamine, reference compound]

Compound: N=C(N)NCCC[C@H](NC(=O)[C@H](CCCNC(=N)N)NC(=O)[C@H](CCCNC(=N)N)NC(=O)[C@H](CCCNC(=N)N)NC(=O)CCNC(=O)[C@H](Cc1ccccc1)NC(=O)[C@H]1O[C@@H](n2cnc3c(N)ncnc32)[C@H](O)[C@@H]1O)C(N)=O [Compound 8] ({Adenosine(5'-uronoyl)}-F[βAla]RRRR-NH2)
- IC50 [4, 12]: 3.7 ± 0.3 µM

Compound: N=C(N)NCCC[C@H](NC(=O)[C@H](CCCNC(=N)N)NC(=O)[C@H](CCCNC(=N)N)NC(=O)[C@H](CCCNC(=N)N)NC(=O)CCCCCNCCNS(=O)(=O)c1cccc2cnccc12)C(N)=O [Compound 25] (Isoquinoline5sulfonyl-[X2]RRRR-NH2)
- IC50 ([4]; second value in parentheses, condition not stated in table (method: ATP 100 μM or 1 mM), read-out: IC50 (μM), value in parentheses (converted)): 0.22 µM

Compound: CN(CCCCCC(=O)N[C@@H](CCCNC(=N)N)C(=O)N[C@@H](CCCNC(=N)N)C(=O)N[C@@H](CCCNC(=N)N)C(=O)N[C@@H](CCCNC(=N)N)C(N)=O)C(=O)[C@H]1O[C@@H](n2cnc3c(N)ncnc32)[C@H](O)[C@@H]1O [Compound 6] ({Adenosine(5'-uronoyl)}-[X3]RRRR-NH2)
- IC50 [4, 12]: 2.6 ± 0.6 µM

Compound: N=C(N)NCCC[C@H](NC(=O)[C@H](CCCNC(=N)N)NC(=O)[C@H](CCCNC(=N)N)NC(=O)[C@H](CCCNC(=N)N)NC(=O)c1ccc(CNC(=O)[C@H]2O[C@@H](n3cnc4c(N)ncnc43)[C@H](O)[C@@H]2O)cc1)C(N)=O [Compound 7] ({Adenosine(5'-uronoyl)-4Amb}-RRRR-NH2)
- IC50 [4, 12]: 23 ± 4 µM

Compound: Nc1ncnc2c1ncn2[C@@H]1O[C@H](CO)[C@@H](O)[C@H]1O [Ado, adenosine]
- inhibitory potency [7]: submillimolar

Compound: N=C(N)NCCC[C@@H](NC(=O)[C@@H](CCCNC(=N)N)NC(=O)[C@@H](CCCNC(=N)N)NC(=O)[C@@H](CCCNC(=N)N)NC(=O)[C@@H](CCCNC(=N)N)NC(=O)[C@@H](CCCNC(=N)N)NC(=O)CCCCCNCCNS(=O)(=O)c1cccc2cnccc12)C(N)=O [Compound 26, H9-(CH2)5C(O)(D-Arg)6-NH2]
- residual activity [8]: ≤ 3%
- remaining activity at 1 µM [9]: ≤ 3%
- remaining activity at 1 µM [10]: ≤ 3%
- remaining activity at 1 µM [11]: ≤ 3%

- Ki ([5]; read-out: Ki (displacement of ARC-TAMRA), 2 nM ARC-TAMRA, 3 nM cAPK Cα, PHERAstar, Kd 0.4 nM used): 0.0005 µM
Compound: RIIa: regulatory subunit of cAMP-dependent protein kinase RIIα, substrate protein-competitive inhibitor

- IC50 [4, 12]: ~3000 µM
Compound: CC(=O)N[C@H](CCCNC(=N)N)C(=O)N[C@H](CCCNC(=N)N)C(=O)N[C@H](CCCNC(=N)N)C(=O)N[C@H](CCCNC(=N)N)C(=O)N[C@H](CCCNC(=N)N)C(=O)N[C@H](CCCNC(=N)N)C(=O)N[C@H](CCCCN)C(N)=O [Compound 27, Ac-(D-Arg)6-D-Lys-NH2] (Ac-[dR][dR][dR][dR][dR][dR][dK]-NH2)
